Four compounds from patent US20250025438A1, “Derivative of aspartic acid and use thereof in treatment of metabolic diseases such as hepatic fibrosis and non-alcoholic hepatitis” (SHENZHEN JINGTAI TECHNOLOGY CO., LTD., priority 2021, published 2025) can be followed below.

The inhibition is how much of the control response was suppressed.

SMILES strings stand for the structures. Counter-ions that a name gives are not always drawn.

What all share (assay type): cell-based
The test system of experiment [1] is COL1A1. Put plainly: In vitro efficacy in semi-activated LX2 cells, qPCR: COL1A1. Particulars: Homo sapiens, LX-2, 50 µM, 48 hours, Q-PCR, read-out: COL1A1 mRNA inhibition rate. (Real-time PCR tracks product formation cycle by cycle.)
In experiment [2] the test system is α-SMA. Put plainly: Semi-activated LX2 cells, Western blot: α-SMA protein. Particulars: 50-400 μM, 48 hours, FIG. 2, vs 50 μM aspartic acid. In general terms: Immunoblotting shows a protein as a band on a membrane.
The test system of experiment [3] is Smad3. The experiment in a line: In vitro efficacy in semi-activated LX2 cells, qPCR: Smad3. Particulars: 48 hours, Q-PCR; for inhibition of the expression of Smad3 at the mRNA level: Table 2; for inhibition at 50 µM: Homo sapiens, LX-2, 50 µM, read-out: Smad3 mRNA inhibition rate. An outline of the steps:
(§1)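 SYBR Green qPCR read-out of fibrosis-gene mRNA in LX2 cells after 48 h compound treatment (50 µM, added 12 h post-plating); total RNA column-extracted, reverse transcribed, expression derived by relative quantification.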

The subject of experiment [4] is collagen I and collagen III. The experiment in a line: Semi-activated LX2 cells, qPCR: collagen I and collagen III at the mRNA level. Particulars: 48 hours, Q-PCR, Table 2. An outline of the steps: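 LX-2 human hepatic stellate cells, adhered 12 h, were treated with 50 µM test compound for 48 h. Total RNA was extracted, and COL1A1, COL1A2 and COL3A1 mRNA were measured by SYBR Green qPCR.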

In experiment [5] the test system is IL-1β. Put plainly: In vitro efficacy in semi-activated LX2 cells, qPCR: IL-1β. Particulars: Homo sapiens, LX-2, 50 µM, 48 hours, Q-PCR, read-out: IL-1β mRNA inhibition rate.
In experiment [6] the test system is COL3A1. Put plainly: In vitro efficacy in semi-activated LX2 cells, qPCR: COL3A1. Particulars: Homo sapiens, LX-2, 50 µM, 48 hours, Q-PCR, read-out: COL3A1 mRNA inhibition rate.
Experiment [7] relates to liver fibrosis-related genes. Put plainly: Semi-activated LX2 cells, qPCR: liver fibrosis-related genes overall. Particulars: 48 hours, Q-PCR, Table 2. The protocol: (§2) Test compounds were added to the LX-2 cells respectively, and total RNA in the cells was extracted 48 hours later. This experiment was performed strictly in accordance with the instructions of the Total RNA Kit. The steps were as follows (note: this experiment was performed on ice throughout the entire process, and special RNase-free tips were used throughout the entire process): • 1) The 12-well cell culture plate was taken out from the incubator, the cell culture medium was discarded, the cells were washed twice with 1 mL of 1×PBS, and a negative pressure suction device was used to fully remove PBS; • 2) 350 μL of TRK Lysis Buffer mixture/well was prepared as needed (mixture preparation method: 1 mL of TRKLysis Buffer+20 μL of β-mercaptoethanol), vortexed and mixed well. 350 μL was added to each well of the 12-well cell culture plate, and allowed to stand at room temperature for 5 minutes to fully lyse the cells; • 3) 70% ethanol/well was prepared as needed, vortexed and mixed well. 350 μL was added to each well of the 12-well cell culture plate, mixed well by shaking, and transferred to the spin column (spin column+collection tube were assembled); • 4) Centrifugation was performed at 4° C., 12000 g for 60 sec. The waste liquid was discarded after centrifugation, while the spin column was kept; • 5) 500 μL of RNA Wash Buffer I was added, centrifuged at 4° C., 12000 g for 60 sec, the waste liquid was discarded after centrifugation, and the collection column was kept; • 6) 500 μL of RNA Wash Buffer II (confirmed that ethanol had been added) was added, centrifuged at 4° C., 12000 g for 60 sec, the waste liquid was discarded after centrifugation, and the collection column was kept; • 7) step 6) was repeated once again, centrifugation was performed at 4° C., 12000 g for 90 sec, the waste liquid was discarded after centrifugation, and the collection column was kept; • 8) Centrifugation was performed at 4° C., 12000 g for 120 sec to ensure that the spin column was fully dried; • 9) The dried spin column was inserted into a new 1.5 mL EP tube, and 30 μL of DEPC water was added to the membrane in the center of the spin column. It should be careful not to touch the EP tube cover in this step. It was allowed to stand at room temperature for 5 minutes to ensure that the RNA was fully dissolved in DEPC water. Centrifugation was performed at 4° C., 12000 g for 60 sec, and the EP tube was kept; • 10) NanoDrop ultra-micro-volume spectrophotometer was used to detect RNA concentration;
(§3) 5.3 Q-PCR detection of target gene expression: According to the instructions of Power SYBR® Green PCR Master Mix, the specific operations were as follows:
LX2 cells were passaged and plated normally. After adherent growth for 12 hours, 50 µM of the test compound was added. After 48 hours, the cells were collected, total RNA was extracted, and Q-PCR was used to detect the changes in the mRNA expression levels of liver fibrosis-related genes (ACTA2 encoding α-SMA, COL1A1 and COLIA2 encoding collagen I, COL3A1 encoding collagen III, SMAD3 encoding Smad3) and inflammation-related genes (IL1β encoding IL-1β, TNFα encoding TNFα) (for specific methods, see 5. Q-PCR detection of target gene expression as described above). α-SMA was a marker of hepatic stellate cell activation, and collagen I and collagen III were the main components of extracellular matrix deposition.

For experiment [8], the system named is α-SMA. Put plainly: In vitro efficacy in semi-activated LX2 cells, qPCR: α-SMA. Particulars: 48 hours, Q-PCR; for inhibition at 50 µM: read-out: α-SMA mRNA inhibition rate; for inhibition of the expression of α-SMA at the mRNA level: Table 2. In a few lines:
as §1

Experiment [9] has as its system NS3TP1. Put plainly: Regulation of NS3TP1 in semi-activated LX2 cells, qPCR. Particulars: LX-2 cells, 48 hours, Q-PCR, vs control group. The method, then: as §2
5.2 Reverse transcription of RNA into cDNA: According to the instructions of PrimeScript™ RT reagent Kit (Perfect Real Time), the specific experimental steps were as follows:
as §3
After the reaction was completed, the amplification curve and dissolution curve of Q-PCR were confirmed, and the relative quantification method ([…]) was used to perform data analysis on the experimental results.
LX2 cells were passaged and plated normally. […] After 48 hours, the cells were collected, total RNA was extracted, and the expression of NS3TP1 gene was detected using Q-PCR method.

Experiment [10] deals with collagen I. Put plainly: Semi-activated LX2 cells, Western blot: collagen I protein. Particulars: 50-400 μM, 48 hours, FIG. 1, vs 50 μM aspartic acid.

Turning to `COC(=O)[C@@H](N)CC(=O)O` [Compound 4], the inhibition at 50 µM in experiment [1] was in the range of 25 to 50%; in experiment [3], 25 to 50%; in [5] it was 1 to 10%; in experiment [6], 25 to 50%; in [8], 25 to 50%. Besides, in [2], the “inhibitory effect on α-SMA protein as compared to ASP” value was “stronger inhibitory effects”. Besides, the “inhibition of the expression of Smad3 at the mRNA level” value in [3] is “could inhibit”. For the same compound, the “inhibition of the expression of collagen I and collagen III at the mRNA level” value in experiment [4] is reported as “could inhibit”. Also, in [7], the “inhibition of the mRNA expression levels of liver fibrosis-related genes (overall)” value (“inhibition … (overall)” below) is on record as “stronger effects”. Besides, in [8], the “inhibition of the expression of α-SMA at the mRNA level” value (“inhibition of the expression of α-SMA” for short) was “could inhibit”. The “Up-regulation of NS3TP1” value in [9] (test concentration 10 mM) is “B (B represented that the up-regulation was 20~40%)”.

For the compound `COC(=O)C[C@H](N)C(=O)O` [Compound 6], the inhibition at 50 µM in experiment [1] was 25 to 50%; in [3] it was 25 to 50%; in experiment [5], 1 to 10%; in [6], 25 to 50%; in experiment [8], 10 to 25%. Moreover, the “inhibitory effect on α-SMA protein as compared to ASP” value in experiment [2] is “stronger inhibitory effects”. The “inhibition of the expression of Smad3 at the mRNA level” value in [3] is “could inhibit”. The “inhibitory effect on collagen I protein expression as compared to ASP” value in experiment [10] is listed as “stronger inhibitory effects”. The “inhibition of the expression of collagen I and collagen III at the mRNA level” value in [4] is listed as “could inhibit”. Further, the “inhibition … (overall)” value in experiment [7] is on record as “stronger effects”. For the same compound, the “inhibition of the expression of α-SMA” value in experiment [8] is recorded as “could inhibit”. The “Up-regulation of NS3TP1” value in experiment [9] (200 µM compound) is “A (A represented that the up-regulation was 40% or above)”.

`N[C@@H](CCC(=O)O)C(=O)O` [Compound 47]: the inhibition at 50 µM in experiment [1] is 25 to 50%; in experiment [3] it was 1 to 10%; in [5] it was 1 to 10%; in [6], 10 to 25%. In experiment [2], the “inhibitory effect on α-SMA protein as compared to ASP” value was “stronger inhibitory effects”. The “inhibitory effect on collagen I protein expression as compared to ASP” value in experiment [10] is recorded as “stronger inhibitory effects”. For the same compound, the “inhibition of the expression of collagen I and collagen III at the mRNA level” value in [4] is “could inhibit”. The “inhibition … (overall)” value in experiment [7] is on record as “stronger effects”.

Turning to `COC(=O)C[C@H](N)C(=O)OCOC(=O)[C@@H](N)CC(=O)OC` [Compound 54, 4-dimethyl O′1,01-methylene (2S,2'S)-bis (2-aminosuccinate) hydrochloride], the inhibition at 50 µM is 25 to 50% in experiment [1] and 10 to 25% in experiment [6]. The “inhibitory effect on collagen I protein expression as compared to ASP” value in experiment [10] was “stronger inhibitory effects”. Also, the “inhibition of the expression of collagen I and collagen III at the mRNA level” value in experiment [4] is reported as “could inhibit”. In experiment [7], the “inhibition … (overall)” value is “stronger effects”. Moreover, in experiment [8], the “inhibition of the expression of α-SMA” value is given as “could inhibit”. Also, in experiment [9] (200 µM compound), the “Up-regulation of NS3TP1” value is listed as “A (A represented that the up-regulation was 40% or above)”.
